Tests used:
[1] = system: intestinal epithelial cells; assay: qRT-PCR of inflammatory mediators in intestinal epithelial cells in vivo; parameters: species or system C57BL/6 mice; conditions: mucin 3% in drinking water, naïve mice, 2 weeks
From the text: FIG. 15 illustrates effects of mucin and inulin on expression of inflammatory mediators by intestinal epithelial cells in vivo. qRT-PCR data are shown for mRNA levels of the indicated inflammatory mediators in intestinal epithelial cells from mucin or inulin-treated mice (n=4). Data are representative of two independent experiments. Graphs show the mean s.e.m. *P<0.05, **P<0.005, one-way ANOVA with Tukey's correction.
Isolation of intestinal epithelial cells. A 10 cm section of mouse small intestine was opened longitudinally, minced, washed in 150 mM NaCl containing 1 mM DTT, and then resuspended in dissociation buffer (130 mM NaCl, 10 mM EDTA, 10 mM Hepes [pH 7.4], 10% FCS, and 1 mM DTT). The sections were incubated at 37° C. for 30 min with vigorous shaking to release the epithelial cells from the lamina propria. The epithelial cell suspension was then carefully aspirated, centrifuged, and washed in ice-cold PBS.
The effect of mucin and inulin on intestinal epithelial cells was evaluated in vivo. To this end, mucin (3% in drinking water) or inulin (15% in chow) were administered to naïve C57BL/6 mice for 2 weeks. Intestinal epithelial cells were isolated from small intestine and were assessed for the level of select cytokines and chemokines that are implicated in the activation of the immune response and anti-tumor immunity.

[2] = system: Yumm1.5 tumors; assay: Flow cytometry of tumor-infiltrating immune cells in Yumm1.5 tumors; format: in vivo, C57BL/6 mice; conditions: 20 days following tumor inoculation
From the text: FIG. 2B, Quantification of tumor-infiltrating effector (CD44hi) CD4+, CD8+ and CD45+ T cells from mice treated as in FIG. 2A (n=10). FIG. 2C, Quantification of tumor-infiltrating, IFN-g-producing CD4+ T cells from mice treated as in FIG. 2A (n=10). FIG. 2D, Quantification of tumor-infiltrating total DCs and subsets in mice treated as in FIG. 2A (n=10). FIG. 2E, MFI of MHC class I and MHC class II on DCs from the tumors of mice treated as in FIG. 2A (n=10). […] Graphs show the mean s.e.m. *P<0.05, **P<0.005, ***P<0.001,****P<0.0001 by two-way ANOVA with Tukey's correction (A) and by one-way ANOVA with Tukey's correction (B-E).
Tumor digestion. Tumors were excised, minced, and digested with 1 mg/ml collagenase D (Roche) and 100 μg/ml DNase I (Sigma) at 37° C. for 1 h. Digests were then passed through a 70-μm cell strainer to generate a single-cell suspension. The cells were washed twice with PBS containing 2 mM EDTA, and then stained for flow cytometry.
Flow cytometry. Tumor-derived single-cell suspensions were washed twice with FACS staining buffer, fixed for 15 min with 1% formaldehyde in PBS, washed twice, and resuspended in FACS staining buffer. For intracellular cytokine staining, cells were resuspended in complete RPMI-1640 (containing 10 mM HEPES, 1% non-essential amino acids and L-glutamine, 1 mM sodium pyruvate, 10% heat-inactivated fetal bovine serum (FBS), and antibiotics) supplemented with 50 U/mL IL-2 (NCI), […] brefeldin A (BFA, Sigma), and incubated with phorbol myristate acetate (10 ng/ml) and ionomycin (0.5 μg/ml) at 37° C. The cells were then fixed and permeabilized using a Cytofix/Cytoperm Kit (BD Biosciences) before staining. Antibodies to the following proteins were used: CD45.2 (104), CD8a (53-6.7), CD4 (GK1.5), CD44 (IM7), TNF-α (MP6-XT22), IFN-γ (XMG1.2), CD11c (N418), CD11b (M1/70), MHC class II (M5/114.15.2), PDCA (129c1), and B220 (RA3-6B2) from BioLegend, and antibodies to IL-2 (JES6-5H4) and MHC class I (AF6-88.5.5.3) from eBioscience. All data were collected on an LSRFortessa (BD Biosciences) and analyzed using FlowJo Software (Tree Star).

[3] = system: MC-38 mouse colorectal cancer cells; assay: Growth of MC-38 colorectal cancer tumors in prebiotic-fed mice; format: in vivo, C57BL/6 mice; conditions: 3% mucin in drinking water or 15% inulin diet from two weeks prior to inoculation
From the text: MC-38 mouse colorectal cancer cells (1×10^6) were inoculated, and diets were continued after inoculation.

[4] = system: CD8+ T cells; assay: qRT-PCR of cytokine and chemokine mRNAs in CD8+ T cells in vitro; format: cell-based, mice; conditions: 0.05 or 0.5 mg/ml in vitro; in some conditions
From the text: (§1) Data are representative of two independent experiments. Graphs show the mean±s.e.m. *P<0.05, **P<0.005, ***P<0.001, ****P<0.0001 one-way ANOVA with Tukey's correction.
RNA extraction and qRT-PCR analyses. Total RNA was extracted from tumor samples individually using the RNeasy Fibrous Tissue Midi kit (QIAGEN) or cells treated as indicated using High Capacity Reverse Transcriptase kits (Invitrogen) according to the manufacturer's protocol. Purity and concentration of extracted RNA were checked and quantified by reading at 260 and 280 nm in a NanoDrop spectrophotometer (Thermo Fisher). The qRT-PCR analyses were performed using Syber Green RT-PCR kits (Invitrogen) on a Bio-Rad CFX Connect Real-Time system. Expression levels normalized to 18S or Tubb5 controls.

[5] = system: bone marrow-derived dendritic cells (BMDCs); assay: Activation of bone marrow-derived dendritic cells in vitro; format: cell-based, murine; conditions: 24 h, 0.05 and 0.5 mg/ml
From the text: as §1
Bone Marrow-Derived Dendritic Cells (BMDCs).

[6] = system: SW1 (syngeneic NRAS mutant melanoma) cells; assay: SW1 melanoma growth with mucin and/or inulin; format: in vivo, C3H/HeOuJ mice; conditions: 3% mucin in drinking water and/or 15% inulin diet from 14 days prior to inoculation
From the text: FIG. 17A Growth of SW1 mouse melanoma cells in C3H/HeOuJ mice that were fed with 0 or 3% mucin in drinking water and/or a diet enriched with 15% inulin, starting 14 days prior to (and continued after) tumor inoculation (n=10). FIG. 17B. […] Graphs show the mean±s.e.m. *P<0.05, **P<0.005,***P<0.001, ****P<0.0001 by two-way ANOVA with Tukey's correction.
Animals and tumor models. All experimental animal procedures were approved by the Institutional Animal Care and Use Committee of Sanford Burnham Prebys Medical Discovery Institute (SBP) and complied with all relevant ethical regulations for animal testing and research. C57BL/6 mice were obtained from Sanford Burnham Prebys Medical Discovery Institute. […] C3H/HeOuJ mice were purchased from Jackson laboratories. Male 6-8-week-old mice were used for all experiments. […] All mice were fed an autoclaved chow diet ad libitum (LabDiet 5K67, Purina Foods). […] Mouse selection for experiments was not formally randomized or blinded. For tumor growth experiments, mice were injected subcutaneously (s.c.) with 1×10^6 tumor cells. Tumor size was measured twice a week for calculation of tumor volume. Tumors were weighed at the time of excision.
Mucin and inulin treatment. For mucin treatment, C57BL/6 mice were subjected to control or water supplemented with 3% mucin (Lee Biosolutions) prior to (14 days) and during tumor inoculation. […]

[7] = system: OT-I CD8+ T cells; assay: In vivo OT-I T cell assay with B16-OVA melanoma cells; parameters: species or system C57BL/6 mice; conditions: mucin-treated vs control mice
Procedure: Right dot plots show gating of CD45.1+CD8+ cells (n=6). FIG. 4B Quantification of CD45.1+OT-I CD8+ T cell number in the tumor-draining lymph nodes (TdLN) and non-draining lymph nodes (ndLN) of WT C57BL/6 mice CD45.2+ mice that were injected with B16-OVA melanoma cells (n=10). Graphs show the mean s.e.m. *P<0.05, by two-tailed t-test or Mann-Whitney U test.
In vivo OT-I T cell proliferation assay. […] After 24 h, the mice were injected s.c. with 1×10^6 B16-OVA melanoma cells and the mice were left for 7 days. The spleen, tumor-draining lymph nodes, and non-draining lymph nodes were harvested and analyzed by flow cytometry. The proliferation of OT-1 CD8+ T cells was assessed by analysis of CFSE dilution within the population by gating on CD45.1+CD8+ T cells.
To assess the activation and homing of tumor-specific T cells in prebiotic-treated mice, an adoptive transfer model was used with OVA-specific OT-I transgenic T cells. OVA-specific OT-I CD8+, CD45.1+ T cells were transferred into untreated or mucin-treated WT mice. Mice were injected with OVA-expressing B16F10 tumor cells, and the frequency of OVA-specific OT-I T cells was monitoring in tumor draining and non-tumor-draining lymph nodes. OT-I CD8+ T cells were more abundant in the tumor-draining lymph nodes of mucin-treated mice, compared with control mice (FIG. 4A-B).

Substance: mucin
- TNF-α mRNA level in intestinal epithelial cells [1]: elevated
- MHC class I and MHC class II on tumor-resident DCs [2]: higher levels
- dendritic cell subsets including pDCs and CD8a+ conventional DCs in tumors [2]: increased
- effector (CD44hi) CD4+ and CD8+ T cells, and CD45+ cells in tumors ([2]; compared to control mice): enrichment
- growth of colon cancer MC-38 tumors [3]: not
- expression of Granzyme B, CCL4, and CCL5 in CD8+ T cells [4]: enhanced expression
- CD40, CD80, MHC I and MHC II on BMDCs [5]: increased
- SW1 tumor growth [6]: attenuated tumor growth
- OT-I CD8+ T cells in tumor-draining lymph nodes [7]: more abundant
